# According to US5912405A, “Enhancers such as acetosyringone” (Novo Nordisk A/S, priority 1994, dated 1999):
# How the values were obtained:
# Assay type in all cases: biochemical
# [1] = target: T1, Coprinus cinereus peroxidase (CiP) (Coprinopsis cinerea, UniProt P28314); test: Initial bleaching of Chicago Sky Blue 6B (CSB) with Coprinus cinereus peroxidase and enhancers; conditions: 5 μM enhancer, 20 μM H2O2, 30° C.
# T1 construct: made in house
# T1 sequence (P28314 21-363): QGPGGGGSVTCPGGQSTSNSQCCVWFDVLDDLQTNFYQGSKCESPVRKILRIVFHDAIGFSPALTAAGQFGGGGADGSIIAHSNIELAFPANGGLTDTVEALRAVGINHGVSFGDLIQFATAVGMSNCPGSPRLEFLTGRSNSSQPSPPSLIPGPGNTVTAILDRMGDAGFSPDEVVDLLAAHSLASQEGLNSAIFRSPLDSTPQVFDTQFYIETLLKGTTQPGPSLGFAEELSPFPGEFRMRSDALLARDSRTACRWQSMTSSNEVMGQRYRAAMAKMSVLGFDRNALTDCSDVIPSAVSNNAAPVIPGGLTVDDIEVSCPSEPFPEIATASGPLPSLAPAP
# Description: (§1) The bleaching rate of Direct Blue 1 (DB1) by purified CiP was determined using the following conditions: […]
# (§2) Reagents were mixed in a thermostated cuvette at 30° C. and the bleaching was started by addition of hydrogen peroxide. The bleaching was detected spectrophotometrically at 610 nm, which is the wavelength of the absorption peak of DB1. Bleaching was followed for 1 minute, and the initial reduction in absorbance, --ΔmAbs/minute, was determined.
# Bleaching tests were performed in exactly the same way as described in Example 2 except that instead of using DB1 Chigaco Sky Blue (CSB) (obtainable from Aldrich) was used, and the following enhancers were tested: […]
# [2] = target: T2, Coprinus cinereus laccase (Coprinopsis cinerea, UniProt Q9Y780); test: Bleaching of Direct Blue 1 using Coprinus cinereus laccase with/without enhancing agents at pH 5.5-8.5; conditions: C. cinereus laccase 1 mg/l, 10 μM enhancing agent, 30° C.
# T2 sequence (Q9Y780 19-539): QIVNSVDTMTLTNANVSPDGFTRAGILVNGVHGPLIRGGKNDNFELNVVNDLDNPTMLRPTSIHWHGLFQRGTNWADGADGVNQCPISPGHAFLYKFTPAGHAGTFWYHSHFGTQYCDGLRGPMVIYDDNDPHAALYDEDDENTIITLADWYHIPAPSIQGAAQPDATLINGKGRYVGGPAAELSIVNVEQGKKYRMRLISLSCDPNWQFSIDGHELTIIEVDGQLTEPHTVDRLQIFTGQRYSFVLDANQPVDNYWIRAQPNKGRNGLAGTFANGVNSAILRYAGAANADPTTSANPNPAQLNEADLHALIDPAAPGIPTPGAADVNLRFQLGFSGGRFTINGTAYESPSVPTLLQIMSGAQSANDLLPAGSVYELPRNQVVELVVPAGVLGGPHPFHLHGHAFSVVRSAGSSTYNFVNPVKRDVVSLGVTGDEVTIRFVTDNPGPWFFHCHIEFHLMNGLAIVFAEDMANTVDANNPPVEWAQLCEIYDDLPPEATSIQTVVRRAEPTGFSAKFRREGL
# Description: Bleaching of the dye Direct Blue 1 at various pH values was conducted using Coprinus cinereus laccase and one of the following enhancing agents:
# The laccase was obtained in the following way: Coprinus cinereus (IFO 30116--freely available to the public from Institute of Fermentation, Osaka (IFO) under the indicated deposit number) was inoculated from a PDA agar slant (PDA: 39 g/l potato dextrose agar) into a 100 ml shake flask containing medium A (Medium A is described in Example 3). The culture was cultivated for 6 days at 26° C. and 100 rpm. A 10-liter fermentor containing medium A was inoculated with the 100 ml culture broth. The fermentation ran for 6 days at 26° C. and 100 rpm. The culture broth was filtrated and concentrated by ultrafiltration. Further purification was carried out using hydrophobic interaction chromatography followed by anionic exchange chromatography. This process resultated in a preparation with a laccase activity of 3.6 LACU/ml. The estimated purity was >80% on a protein basis.
# The bleaching rate of DB1 was determined using the owing conditions: […]
# (§3) Reagents were mixed in a 1 ml thermostated cuvette at 30° C. and the bleaching was started by addition of the laccase.
# The bleaching was followed spectrophotometrically at 610 nm, which is the wavelength of the absorption peak of DB1 with readings every 5 sec. for a period of 5 minutes. The initial bleaching rate was determined from the first linear part of the absorbance curve.
# [3] = test system: laccase obtained from Coprinus friesii; test: Bleaching of Direct Blue 1 using Coprinus friesii laccase and methylsyringate; conditions: 10 μM methylsyringate, 30° C.
# Description: (§4) Bleaching of the dye Direct Blue 1 at various pH values was conducted using a laccase obtained from Coprinus comatus, Coprinus friesii, Coprinus plicatilis, Panaeolus papilionaceus or Psathyrella condolleana and methylsyringate.
# (§5) After fermentation the culture broths were centrifugated and the supernatants were used in the tests described below.
# (§6) The bleaching rate of DB1 was determined using the following conditions: […]
# as §3
# (§7) The bleaching was followed spectrophotometrically at 610 nm, which is the wavelength of the absorption peak of DB1, with readings every 5 sec. for a period of 5 minutes. The initial bleaching rate was determined from the first linear part of the absorbance curve.
# [4] = test system: laccase obtained from Coprinus plicatilis; test: Bleaching of Direct Blue 1 using Coprinus plicatilis laccase and methylsyringate; conditions: 10 μM methylsyringate, 30° C.
# Description: as §4, §5, §6, §3, §7
# [5] = target: T1, Coprinus cinereus peroxidase (CiP); test: Initial bleaching of Direct Blue 1 with Coprinus cinereus peroxidase and enhancers; conditions: 5 μM enhancer, 20 μM H2O2, 30° C.
# Description: A Coprinus cinereus peroxidase (CiP), obtained as described in WO 9412621 was used.
# Dilutions of CiP were made in a solution of 0.15 gram/l of Triton X-405.
# as §1, §2
# [6] = test system: laccase obtained from Panaeolus papilionaceus; test: Bleaching of Direct Blue 1 using Panaeolus papilionaceus laccase and methylsyringate; conditions: 10 μM methylsyringate, 30° C.
# Description: as §4, §5, §6, §3, §7
# [7] = test system: laccase obtained from Coprinus comatus; test: Bleaching of Direct Blue 1 using Coprinus comatus laccase and methylsyringate; conditions: 10 μM methylsyringate, 30° C.
# Description: as §4, §5, §6, §3, §7
# [8] = test system: laccase obtained from Psathyrella condolleana; test: Bleaching of Direct Blue 1 using Psathyrella condolleana laccase and methylsyringate; conditions: 10 μM methylsyringate, 30° C.
# Description: as §4, §5, §6, §3, §7
# Trametes villosa laccase = target: T3, Trametes villosa laccase (Trametes villosa, UniProt Q99044); test: Bleaching of Direct Blue 1 with Trametes villosa laccase with and without enhancing agents; conditions: 10 μM enhancer, 30° C.
# T3 construct: made in house; host or cells: Trametes villosa CBS 678.70 (native producer), purified from culture broth
# T3 sequence (Q99044 22-520): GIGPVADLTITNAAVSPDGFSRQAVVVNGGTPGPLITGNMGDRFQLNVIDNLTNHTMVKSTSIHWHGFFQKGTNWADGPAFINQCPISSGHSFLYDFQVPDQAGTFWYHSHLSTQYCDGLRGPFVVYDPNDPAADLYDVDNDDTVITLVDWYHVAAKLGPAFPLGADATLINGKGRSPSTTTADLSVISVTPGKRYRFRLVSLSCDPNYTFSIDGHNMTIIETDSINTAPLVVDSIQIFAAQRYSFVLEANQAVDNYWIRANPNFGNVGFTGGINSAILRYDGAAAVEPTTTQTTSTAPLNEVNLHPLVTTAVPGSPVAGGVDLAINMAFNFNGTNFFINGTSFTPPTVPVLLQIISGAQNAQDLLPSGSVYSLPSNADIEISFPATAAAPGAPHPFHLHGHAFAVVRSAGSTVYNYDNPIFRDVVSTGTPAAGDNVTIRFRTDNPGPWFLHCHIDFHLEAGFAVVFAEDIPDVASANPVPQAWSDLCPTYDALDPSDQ
# Description: Laccase obtained from Trametes villosa: 800 ml culture broth of Trametes villosa, CBS 678.70, was filtered with filter aid to give a clear filtrate, which was concentrated and washed by ultrafiltration on a membrane with a cut-off of 6-8 kDa. One ml samples of concentrated preparation was applied onto a Q-Sepharose HP column (Pharmacia, Sweden) equilibrated with 0.1 M fosfate pH 7, and the laccase was eluted with a flat NaCl gradient around 0.25 M. Fractions with laccase activity from 10 runs were pooled and concentrated by ultrafiltration to an activity of 500 LACU/ml.
# The following conditions were used: […]
# Reagents were mixed in a 1 cm thermostated cuvette at 30° C. and the bleaching was started by addition of enzyme.
# The bleaching was detected spectrophotometrically at 610 nm, which is the absorption peak of DB1. After 5 sec. bleaching was followed for 4 minutes.
# Bleaching of Direct Blue 1 with Trametes villosa laccase, obtained as described above, at pH 5.5 (1.6 mg/l) and pH 7.0 (16 mg/l): […]
compound,measurement,setting,value
CCCCOC(=O)c1cc(OC)c(O)c(OC)c1 [butylsyringate],Initial Bleaching of CSB with CiP,"[1]; pH 8.5, 0.08 mg/l CiP",228 -ΔmAbs/minute
same,Initial Bleaching of CSB with CiP,"[1]; pH 10.5, 0.16 mg/l CiP",48 -ΔmAbs/minute
"CCOC(=O)C=Cc1cc(OC)c(O)c(OC)c1 [ethyl 3-(4-hydroxy-3,5-dimethoxyphenyl)acrylate]",Initial Bleaching of CSB with CiP,"[1]; pH 8.5, 0.08 mg/l CiP",48 -ΔmAbs/minute
same,Initial Bleaching of CSB with CiP,"[1]; pH 10.5, 0.16 mg/l CiP",48 -ΔmAbs/minute
CCOC(=O)c1cc(OC)c(O)c(OC)c1 [ethylsyringate],Initial Bleaching of CSB with CiP,"[1]; pH 8.5, 0.08 mg/l CiP",240 -ΔmAbs/minute
same,Initial Bleaching of CSB with CiP,"[1]; pH 10.5, 0.16 mg/l CiP",52 -ΔmAbs/minute
CCCCCCOC(=O)c1cc(OC)c(O)c(OC)c1 [hexylsyringate],Initial Bleaching of CSB with CiP,"[1]; pH 8.5, 0.08 mg/l CiP",276 -ΔmAbs/minute
same,Initial Bleaching of CSB with CiP,"[1]; pH 10.5, 0.16 mg/l CiP",36 -ΔmAbs/minute
COC(=O)c1cc(OC)c(O)c(OC)c1 [methylsyringate],Initial bleaching rate of DB1,[2]; pH 5.5,20 -ΔmAbs/minute
same,Initial bleaching rate of DB1,[2]; pH 7.0,94 -ΔmAbs/minute
same,Initial bleaching rate of DB1,[2]; pH 8.5,57 -ΔmAbs/minute
same,Initial bleaching rate of DB1,"[3]; C. friesii laccase 4 LACU/l, pH 5.5",40 -ΔmAbs/minute
same,Initial bleaching rate of DB1,"[3]; C. friesii laccase 4 LACU/l, pH 7.0",55 -ΔmAbs/minute
same,Initial bleaching rate of DB1,"[3]; C. friesii laccase 20 LACU/l, pH 8.5",61 -ΔmAbs/minute
same,Initial bleaching rate of DB1,"[4]; C. plicalitis laccase 4 LACU/l, pH 5.5",42 -ΔmAbs/minute
same,Initial bleaching rate of DB1,"[4]; C. plicalitis laccase 4 LACU/l, pH 7.0",39 -ΔmAbs/minute
same,Initial bleaching rate of DB1,"[4]; C. plicalitis laccase 20 LACU/l, pH 8.5",14 -ΔmAbs/minute
same,Initial Bleaching of Direct Blue 1 with CiP,"[5]; pH 8.5, 0.08 mg/l CiP",245 -ΔmAbs/minute
same,Initial Bleaching of Direct Blue 1 with CiP,"[5]; pH 10.5, 0.16 mg/l CiP",8 -ΔmAbs/minute
same,Initial bleaching rate of DB1,"[6]; Pan. papilionaceus laccase 4 LACU/l, pH 5.5",16 -ΔmAbs/minute
same,Initial bleaching rate of DB1,"[6]; Pan. papilionaceus laccase 4 LACU/l, pH 7.0",19 -ΔmAbs/minute
same,Initial bleaching rate of DB1,"[6]; Pan. papilionaceus laccase 20 LACU/l, pH 8.5",18 -ΔmAbs/minute
same,Initial bleaching rate of DB1,"[7]; C. comatus laccase 4 LACU/l, pH 5.5",33 -ΔmAbs/minute
same,Initial bleaching rate of DB1,"[7]; C. comatus laccase 4 LACU/l, pH 7.0",23 -ΔmAbs/minute
same,Initial bleaching rate of DB1,"[7]; C. comatus laccase 20 LACU/l, pH 8.5",2 -ΔmAbs/minute
same,Initial bleaching rate of DB1,"[8]; Ps. condolleana laccase 4 LACU/l, pH 5.5",45 -ΔmAbs/minute
same,Initial bleaching rate of DB1,"[8]; Ps. condolleana laccase 4 LACU/l, pH 7.0",54 -ΔmAbs/minute
same,Initial bleaching rate of DB1,"[8]; Ps. condolleana laccase 20 LACU/l, pH 8.5",43 -ΔmAbs/minute
same,Initial Bleaching of CSB with CiP,"[1]; pH 8.5, 0.08 mg/l CiP",211 -ΔmAbs/minute
same,Initial Bleaching of CSB with CiP,"[1]; pH 10.5, 0.16 mg/l CiP",42 -ΔmAbs/minute
CCCCCCCCOC(=O)c1cc(OC)c(O)c(OC)c1 [octylsyringate],Initial Bleaching of CSB with CiP,"[1]; pH 8.5, 0.08 mg/l CiP",192 -ΔmAbs/minute
same,Initial Bleaching of CSB with CiP,"[1]; pH 10.5, 0.16 mg/l CiP",15 -ΔmAbs/minute
CCCOC(=O)c1cc(OC)c(O)c(OC)c1 [propylsyringate],Initial Bleaching of CSB with CiP,"[1]; pH 8.5, 0.08 mg/l CiP",228 -ΔmAbs/minute
same,Initial Bleaching of CSB with CiP,"[1]; pH 10.5, 0.16 mg/l CiP",60 -ΔmAbs/minute
COc1cc(C=O)cc(OC)c1O [syringaldehyde],Initial bleaching rate of DB1,[2]; pH 5.5,29 -ΔmAbs/minute
same,Initial bleaching rate of DB1,[2]; pH 7.0,79 -ΔmAbs/minute
same,Initial bleaching rate of DB1,[2]; pH 8.5,28 -ΔmAbs/minute
same,Initial Bleaching of Direct Blue 1 with CiP,"[5]; pH 8.5, 0.08 mg/l CiP",151 -ΔmAbs/minute
same,Initial Bleaching of Direct Blue 1 with CiP,"[5]; pH 10.5, 0.16 mg/l CiP",4 -ΔmAbs/minute
same,DB1 bleaching in 4 minutes,"Trametes villosa laccase; pH 5.5, Trametes villosa laccase 1.6 mg/l",438 -ΔmAbs/4 min
same,DB1 bleaching in 4 minutes,"Trametes villosa laccase; pH 7.0, Trametes villosa laccase 16 mg/l",112 -ΔmAbs/4 min
